{"source": "patent US6455541B1", "about": "“Suppression, by 5-lipoxygenase inhibitors, of bone resorption” (Board of Regents, The University of Texas System, priority 1994, dated 2002)", "molecules": {"B1": {"name": "Lymphotoxin: bone resorbing factor (protein, UniProt P01374 35-205, looked up)", "Lymphotoxin-alpha": "LPGVGLTPSAAQTARQHPKMHLAHSTLKPAAHLIGDPSKQNSLLWRANTDRAFLQDGFSLSNNSLLVPTSGIYFVYSQVVFSGKAYSPKATSSPLYLAHEVQLFSSQYPFHVPLLSSQKMVYPGLQEPWLHSMYHGAAFQLTQGDQLSTHTDGIPHLVLSPSTVFFGAFAL"}, "B2": {"name": "PTH: parathyroid hormone (protein, UniProt P01270 32-115, looked up)", "Parathyroid hormone": "SVSEIQLMHNLGKHLNSMERVEWLRKKLQDVHNFVALGAPLAPRDAGSQRPRKKEDNVLVESHEKSLGEADKADVNVLTKAKSQ", "modifications": "Parathyroid hormone"}}, "key": {"C433 cells": {"system": "C433 cells", "test": "Production of osteoclast-stimulating activity by C433 cells (conditioned medium bioassayed for TRAP in avian osteoclasts)", "type": "cell-based, human", "details": "flurbiprofen 10^−5 M; indomethacin 10^−6 M; nordihydroguaiaretic acid 10^−6, 10^−5 or 10^−4 M", "description": "FIG. 3A, FIG. 3B, FIG. 3C and FIG. 3D. Chemical characterization of activity. FIG. 3A. C433-conditioned medium was treated with ultraviolet-light (UV) for 24 h or placed in a boiling water bath (100° C.) for 15 min and bioassayed. FIG. 3B. amino peptidase M (A), carboxypeptidase (C), or Pronase-CB (P) were incubated in the presence of C433-conditioned medium for 12 h at 37° C. FIG. 3C. […] The resultant conditioned medium was bioassayed for activity. FIG. 3D. […] Conditioned medium was bioassayed for induction of TRAP activity in avian osteoclasts.\nC433 cells were grown in 10% fetal bovine serum (Whittaker, Walkersville, Md.) 50% RPMI, 50% McCoys (Flow, McLean, Va.) until a density of 10^4 cells/ml was obtained, at which time the cells were harvested, washed, and placed in serum-free DMEM plus 10^−8 M, 1,25-(OH)2D3 for 48 h before harvest of conditioned medium. […] This conditioned medium was applied to a prewetted C18 Sep-Pak (Millipore, Waters, Milford, Mass.), and bound material was extracted using ethyl acetate. This material was dried under nitrogen and resuspended in water, it acetic acid and analyzed by high pressure measure liquid chromatography (HPLC) (Waters, Milford, Mass.) applied to a C8 semipreparative 25 cm×10 mm reverse phase column (Keystone Scientific, Inc., Bellefonte, Pa.) at 2 ml/min. The gradient was 0-100% methanol, 1% acetic acid over 60 min with 6-ml fractions collected. The fractions were dried under nitrogen, and those fractions to be assayed for osteoclast stimulating activity were stabilized with 20 μl of 10% bovine serum albumin. Fractions to be used for gas chromatography-mass spectrometric analysis were prepared for derivatization."}, "neonatal mouse calvariae": {"system": "neonatal mouse calvariae", "test": "Neonatal mouse (murine) calvarial assay, 45Ca release", "type": "cell-based", "details": "for 45Ca release, Factor alone (Table II): IL-1 5 × 10^−10M, TNF 2 × 10^−10M, Lymphotoxin 5 × 10^−9M, PTH 4 ng/ml", "description": "The assay was performed as described by Gowen et al. (1983). Timed pregnant mice were injected with ^45Ca 2 days before parturition. Half-calvaria were removed from the 1-2-day-old pups and preincubated for 24 h in BGJb medium at 37° C. in a humidified atmosphere of 5% CO2 before transfer to fresh media with or without test substances for 48 h. The bones were incubated for a further 72 h and media and bones collected. Bone-resorbing activity was expressed as the percentage of the total ^45Ca released into the medium."}, "[1]": {"system": "isolated avian osteoclasts", "test": "TRAP activity in isolated avian osteoclasts", "type": "cell-based, Gallus domesticus", "details": "10^−8 M stimulates suboptimally", "description": "Avian osteoclasts were isolated from medullary bone of laying White Leghorn hens Gallus domesticus (Pioneer Animal Supply, Kingswheel, Ohio) as described previously by Zambonin-Zallone and Teti (1981). In brief, bone marrow suspensions from the medullary bone of femora were filtered through Nytex cloth (110 μm, t'etko, Elmsford, N.Y.), centrifuged for 5 min at 1200 rpm, and the cell pellet resuspended in 0.2% NaCl for 3 min to lyse erythrocytes. After layering the cells on 100% fetal bovine serum for 1 h, sedimented cells were further filtered through Nytex filters (55 μm). Cells were harvested, resuspended in α-minimal Eagle's medium (GIBCO) containing 10 fetal bovine serum, with penicillin (100 units/ml), streptomycin (100 μg/ml), and Ara-C, to inhibit proliferation of nonosteoclastic cells. Cells were plated in 24- or 48-well plates (Costar, Cambridge, Mass.) at 1×10^4 cells/well and incubated at 37° C. in 10% CO2 humidified air for 48 h, after which they were washed to remove nonadherent cells. When matured osteoclasts were observed experiments were begun and terminated within 48 h.\nOsteoclast TRAP activity was measured using fluorescence spectroscopy as described by Chambers et al. (1987) with minor modifications. In brief, media from osteoclast cultures were harvested and stored at −70° C. until ready for assay.\nThe cells were washed with phosphate-buffered saline and harvested in 0.5 ml of Triton X-100 (0.05%, w/v). Aliquots of media or lysate 30 μl) were incubated with 170 μl of 2 mM methylumbelliferyl phosphate, pH 5.0, in 0.48 M acetate buffer (0.48 M sodium acetate, 0.48 M acetic acid, pH 5.0) and 30 mM tartaric acid. Samples were incubated for 30 min at 37° C. and the reaction terminated with 100 μl of stop solution containing 50 mM glycine, 50 mM EDTA, pH 10.4. Fluorescence was measured at excitation 360 nm and emission 448 nm using a fluorimeter (Fluoroskan, Flow Instruments). Enzyme activity was expressed as micromoles of methylumbelliferyl phosphate hydrolyzed/min/μg of protein and the protein content measured by the technique of Lowry et al. (1951)."}, "isolated rat osteoclasts": {"system": "isolated rat osteoclasts", "test": "Disaggregated rat osteoclast pit formation assay on sperm whale dentine", "type": "cell-based", "description": "Quantitation of the effects of isolated osteoclasts on calcified matrices was determined using minor modifications of the disaggregated osteoclast resorption assay as described by Boyde et al. (1984). Sperm whale dentine (0.25×7×7 mm) was prepared using a Buehler low speed diamond saw (Buehler, Lake Bluff, Ill.) followed by sonication (15 min) in several changes of distilled water. Slices were sterilized using ultraviolet light.\nNeonatal Sprague-Dawley rats (2-3 days) were sacrificed by decapitation, the femurs and tibias were removed, scraped free of adherent tissue, and trimmed free of the epiphyses. The bones from one litter were combined and quickly minced using a scalpel blade in 2 ml of 199 medium and then vigorously mixed with a pipette in an 8-ml tube, allowed to settle for 10 s, and then 100 μl of the suspension was added to each well for a total of 16 wells in a 48-well microtiter plate containing sperm whale dentine (approximately four neonates are used per 16 wells). The cells were incubated at 37° C. for 30 min at which time the dentine was removed, washed in media, and placed in a fresh 48-well plate containing 250 μl of test medium.\nOsteoclasts were stained for TRAP and counted and then pit numbers were counted following toluidine blue (0.1% w/v) staining by light microscopy. The plan area of matrix resorbed was quantitated using a computer-assisted morphometric program on a Bioquant System IV analysis system (R & M Biometrics, Nashville, Tenn.).\nQuantitation of the effects of isolated neonatal rat osteoclasts on calcified matrices was determined using minor modifications of the disaggregated osteoclast resorption assay as described by Boyde et al (1984). Briefly rat osteoclasts isolated as described by Chambers et al. (1983) were dispersed on prewetted (AMEM plus 5% FBS) slices of sperm whale dentine. Cultures were performed in 48 well-microtiter plates in humidified air (10% CO2) at 37° C. in αMEM medium (one slice/well in 200 μl medium). Numbers of osteoclasts and resorption lacunae were quantitated as described above for the avian osteoclasts."}, "[2]": {"details": "1,25D3 10^−10M + MK886 2.5 μg/ml"}, "[3]": {"details": "IL-1 1 × 10^−10M + MK886 2.5 μg/ml"}}, "note": "Where “and” joins values, the source holds several entries; their conditions need not be identical. Identical values can stand only once.", "data": [{"molecule": "CC(C(=O)O)c1ccc(-c2ccccc2)c(F)c1", "note": "(centres unmarked) [Flurbiprofen, flurbiprofen]", "values": [{"measurement": "effect on production of C433 activity", "setting": "C433 cells", "result": "no significant effects"}]}, {"molecule": "CCCCC/C=C\\C[C@@H](O)/C=C/C=C/C=C\\[C@@H](O)CCCC(=O)O", "note": "[LTB4]", "values": [{"measurement": "stimulation of bone resorption in neonatal mouse calvariae (in words)", "setting": "neonatal mouse calvariae", "result": "found to stimulate osteoclastic bone resorption"}, {"measurement": "concentration showing statistically significant resorption stimulation", "setting": "neonatal mouse calvariae; dose response, FIG. 8C", "result": "10^−8 to 10^−6 M"}]}, {"molecule": "CCCCC/C=C\\C\\C=C/C=C/C=C/[C@@H](SC[C@H](N)C(=O)NCC(=O)O)[C@@H](O)CCCC(=O)O", "note": "[LTD4, leukotriene D4]", "values": [{"measurement": "concentration of optimal stimulation of TRAP activity", "setting": "[1]", "result": "10^−10 M"}]}, {"molecule": "CCCCC/C=C\\C\\C=C/C=C/C=C/[C@@H](SC[C@H](N)C(=O)O)[C@@H](O)CCCC(=O)O", "note": "[LTE4, leukotriene E4]", "values": [{"measurement": "stimulation of pit formation", "setting": "isolated rat osteoclasts; 10^−10 M", "result": "stimulated"}]}, {"molecule": "CC(C)c1ccc2c(c1)c(SC(C)(C)C)c(CC(C)(C)C(=O)O)n2Cc1ccc(Cl)cc1", "note": "[MK886]", "values": [{"measurement": "inhibition of 1,25(OH)2 vitamin D3-induced bone resorption (in words)", "setting": "neonatal mouse calvariae; 1,25(OH)2 vitamin D3 as factor", "result": "significantly inhibited"}, {"measurement": "45Ca release, factor + MK886", "setting": "neonatal mouse calvariae; [2]", "result": 32.1, "unit": "%"}, {"measurement": "% Inhibition", "setting": "neonatal mouse calvariae; [2]", "result": 23.4, "unit": "%"}, {"measurement": "% Inhibition", "setting": "neonatal mouse calvariae; AAY4 LPS 25 μg/ml + MK886", "result": 20.9, "unit": "%"}, {"measurement": "Ca^45 Release, LPS + MK886", "setting": "neonatal mouse calvariae; AAY4 LPS 25 μg/ml + MK886 (concentration not given)", "result": 22.6, "unit": "%"}, {"measurement": "inhibition of LPS-induced bone resorption (in words)", "setting": "neonatal mouse calvariae; AaY4 LPS and/or WR14 LPS", "result": "only mildly inhibited"}, {"measurement": "45Ca release, factor + MK886", "setting": "neonatal mouse calvariae; [3]", "result": 34.9, "unit": "%"}, {"measurement": "% Inhibition", "setting": "neonatal mouse calvariae; [3]", "result": 23.0, "unit": "%"}, {"measurement": "inhibition of IL-1-induced bone resorption (in words)", "setting": "neonatal mouse calvariae; IL-1 as factor", "result": "significant inhibition of Interleukin-1 induced bone resorption was not noted"}, {"measurement": "45Ca release, MK886 alone", "setting": "neonatal mouse calvariae; MK886 2.5 μg/ml, no factor", "result": "9.6% and 14.2%"}, {"measurement": "% Inhibition", "setting": "neonatal mouse calvariae; WR14 LPS 50 ng/ml + MK886", "result": 8.2, "unit": "%"}, {"measurement": "Ca^45 Release, LPS + MK886", "setting": "neonatal mouse calvariae; WR14 LPS 50 ng/ml + MK886 (concentration not given)", "result": 32.8, "unit": "%"}, {"measurement": "inhibition of PTH and PTHrP-induced bone resorption", "setting": "isolated rat osteoclasts; NDGA 10^−6M, MK886 1 μg/ml, ZM 230,487 10 ng/ml, 20 hours", "result": "inhibition of the bone resorption was seen"}, {"measurement": "order of inhibitory effectiveness", "setting": "isolated rat osteoclasts; PTH and PTHrP-induced bone resorption, NDGA 10^−6M, MK886 1 μg/ml, ZM 230,487 10 ng/ml", "result": "ZM230487>MK886>NDGA"}]}, {"molecule": "COc1ccc2c(c1)c(CC(=O)O)c(C)n2C(=O)c1ccc(Cl)cc1", "note": "[indomethacin]", "values": [{"measurement": "effect on production of C433 activity", "setting": "C433 cells", "result": "no significant effects"}]}, {"molecule": "IL-1: interleukin-1, bone resorbing factor", "values": [{"measurement": "45Ca release, factor alone (Table IV)", "setting": "neonatal mouse calvariae; 1,25D3 10^−10M, IL-1 1 × 10^−10M", "result": 38.9, "unit": "%"}, {"measurement": "45Ca release, Factor alone (Table II)", "setting": "neonatal mouse calvariae; 1,25D3 10^−10M", "result": "27.7% and 31.2%"}, {"measurement": "45Ca release, Factor alone (Table VII)", "setting": "neonatal mouse calvariae; IL-1β 5 × 10^−10M, TNF 5 × 10^−10M, LPS WR14 50 ng/ml", "result": 32.0, "unit": "%"}]}, {"molecule": "B1", "values": [{"measurement": "45Ca release, Factor alone (Table II)", "setting": "neonatal mouse calvariae; 1,25D3 10^−10M", "result": "35.0% and 42.8%"}]}, {"molecule": "B2", "values": [{"measurement": "45Ca release, Factor alone (Table II)", "setting": "neonatal mouse calvariae; 1,25D3 10^−10M", "result": "37.0% and 39.9% and 29.8%"}, {"measurement": "% Total Calcium Released, PTH alone (Table VI)", "setting": "neonatal mouse calvariae; PTH 10 ng/ml", "result": "30.5 ± 2.4", "unit": "%"}]}]}
